Test results reported in patent US20250302948A1, “DR5 Agonist and IAP Antagonist Combination Therapy” (Inhibrx Biosciences, Inc., priority 2022, published 2025).

What was measured:
SW620 = assay: CellTiter-Glo cell viability, 48 h (Examples 1, 2); assay type: cell-based; conditions: Homo sapiens, SW-620
Excerpt: (§1) Test Article Preparation for INBRX-109.
(§2) Day 2—Test and Control Article Addition.
(§3) Day 4—Viability Measurements. […] Data was graphed in GraphPad Prism 7.

HT-29 = assay: CellTiter-Glo cell viability, 48 h (Example 1); assay type: cell-based; conditions: Homo sapiens
Excerpt: as §1, §2, §3

LOVO = assay: CellTiter-Glo cell viability, 48 h (Example 1); assay type: cell-based; conditions: Homo sapiens
Excerpt: as §1, §2, §3

LS411N = assay: CellTiter-Glo cell viability, 48 h (Example 1); assay type: cell-based; conditions: Homo sapiens, LS-411N
Excerpt: as §1, §2, §3

SNU-C2B = assay: CellTiter-Glo cell viability, 48 h (Example 1); assay type: cell-based; conditions: Homo sapiens
Excerpt: as §1, §2, §3

LS174T = assay: CellTiter-Glo cell viability, 48 h (Examples 1, 2); assay type: cell-based; conditions: Homo sapiens, LCL-161 5 uM alone
Excerpt: as §1, §2, §3

A253 = assay: CellTiter-Glo cell viability, T48 (Example 3); assay type: cell-based
Excerpt: (§4) Day 2—Compound Treatment.
(§5) Day 4—Viability Measurements.

CAL-27 = assay: CellTiter-Glo cell viability, T48 (Example 3); assay type: cell-based
Excerpt: as §4, §5

COLO-680N = assay: CellTiter-Glo cell viability, T48 (Example 3); assay type: cell-based
Excerpt: as §4, §5

Detroit 562 = assay: CellTiter-Glo cell viability, T48 (Example 3); assay type: cell-based
Excerpt: as §4, §5

FADU = assay: CellTiter-Glo cell viability, T48 (Example 3); assay type: cell-based
Excerpt: as §4, §5

KYSE-150 = assay: CellTiter-Glo cell viability, T48 (Example 3); assay type: cell-based
Excerpt: as §4, §5

KYSE-270 = assay: CellTiter-Glo cell viability, T48 (Example 3); assay type: cell-based
Excerpt: as §4, §5

KYSE-410 = assay: CellTiter-Glo cell viability, T48 (Example 3); assay type: cell-based
Excerpt: as §4, §5

KYSE-70 = assay: CellTiter-Glo cell viability, T48 (Example 3); assay type: cell-based
Excerpt: as §4, §5

OSC-19 = assay: CellTiter-Glo cell viability, T48 (Example 3); assay type: cell-based
Excerpt: as §4, §5

RPMI-2650 = assay: CellTiter-Glo cell viability, T48 (Example 3); assay type: cell-based
Excerpt: as §4, §5

SCC-15 = assay: CellTiter-Glo cell viability, T48 (Example 3); assay type: cell-based
Excerpt: as §4, §5

SCC-25 = assay: CellTiter-Glo cell viability, T48 (Example 3); assay type: cell-based
Excerpt: as §4, §5

SCC-4 = assay: CellTiter-Glo cell viability, T48 (Example 3); assay type: cell-based
Excerpt: as §4, §5

SCC-9 = assay: CellTiter-Glo cell viability, T48 (Example 3); assay type: cell-based
Excerpt: as §4, §5

SW579 = assay: CellTiter-Glo cell viability, T48 (Example 3); assay type: cell-based
Excerpt: as §4, §5

T.Tn = assay: CellTiter-Glo cell viability, T48 (Example 3); assay type: cell-based
Excerpt: as §4, §5

TE-1 = assay: CellTiter-Glo cell viability, T48 (Example 3); assay type: cell-based
Excerpt: as §4, §5

NCI-H460 = assay: Cytotoxicity on lung cancer cell lines, assay similar to Example 1 (Example 4); conditions: Homo sapiens
Protocol: (§6) Day 1-Cell Seeding. Monolayer cultures of each cell line were harvested for compound screening as detailed below. Culture medium was aspirated, and the cells were washed once with PBS. Accutase was added and flasks were incubated at 37° C. until cells became detached. An equal volume of complete medium was added to quench the Accutase, and the cells were then pipetted up and down several times to generate a homogenous single cell suspension. The density and viability of cells was determined by Trypan Blue using a TC20 Automated Cell Counter. Experimental cells were resuspended to a concentration of 0.17×10^6/mL in EMEM/10% FBS/Anti-Anti media (complete EMEM) and seeded in the inner wells of 384-well luminescence plates at 15 μL/well (2,500/well final). Each cell line was plated in duplicate on separate plates. […]
(§7) Day 4—Viability Measurements. […] Any visible bubbles were removed with 100% ethanol vapor, then luminescence (RLU) was read on the Spectra Max M5e plate reader, using the 384-well opaque plate setting and SoftMaxPro v5.4 software with an integration time of 50 milliseconds. To determine the effect of test articles on cell viability, raw RLU values were exported to Excel and percent survival was calculated as a percentage of vehicle control (0.2% DMSO in EMEM), where the vehicle control is set at 100%. […]

HCC2935 = assay: as above; conditions: Homo sapiens
Protocol: as §6, §7

NCI-H23 = assay: as above; conditions: Homo sapiens
Protocol: as §6, §7

NCI-H2452 = assay: as above; conditions: Homo sapiens
Protocol: as §6, §7

A549 = assay: as above; conditions: Homo sapiens
Protocol: as §6, §7

NCI-N87 = assay: Cytotoxicity on gastric cancer cell lines, assay similar to Example 1 (Example 4); conditions: Homo sapiens
Protocol: as §6
(§8) Day 4—Viability Measurements. […] Any visible bubbles were removed with 100% ethanol vapor, then luminescence (RLU) was read on the Spectra Max M5e plate reader, using the 384-well opaque plate setting and SoftMaxPro v5.4 software with an integration time of 50 milliseconds. To determine the effect of test articles on cell viability, raw RLU values were exported to Excel and percent survival was calculated as a percentage of vehicle control (0.2% DMSO in EMEM), where the vehicle control is set at 100%.

SNU-5 = assay: as above; conditions: Homo sapiens
Protocol: as §6, §8

SNU-1 = assay: as above; conditions: Homo sapiens, SNU1
Protocol: as §6, §8

AsPC-1 = assay: Cytotoxicity on pancreatic cancer cell lines, assay similar to Example 1 (Example 4); conditions: Homo sapiens, ASPC1
Protocol: as §6, §8

Panc-1 = assay: as above; conditions: Homo sapiens
Protocol: as §6, §8

MIA-PaCa-2 = assay: as above; conditions: Homo sapiens
Protocol: as §6, §7

SW1990 = assay: as above; conditions: Homo sapiens
Protocol: as §6, §7

[1] = LCL-161 5 uM alone, read-out: % cytotoxicity
[2] = Homo sapiens, Debio-1143 4.5 μM alone

Molecule: CN[C@@H](C)C(=O)N[C@H](C(=O)N1CCC[C@H]1C(=O)N[C@H]1c2ccccc2C[C@H]1OCC#CC#CCO[C@@H]1Cc2ccccc2[C@@H]1NC(=O)[C@@H]1CCCN1C(=O)[C@@H](NC(=O)[C@H](C)NC)C1CCCCC1)C1CCCCC1 [AZD5582]
- cytotoxicity at 0.45 µM (SW620; SW620, AZD5582 450 nM alone): 4.1%
- cytotoxicity at 0.45 µM (HT-29; AZD5582 450 nM alone): 23.4%
- cytotoxicity at 0.45 µM (LOVO; AZD5582 450 nM alone): 28.2%
- cytotoxicity at 0.45 µM (LS411N; LS411N, AZD5582 450 nM alone): 12.7%
- cytotoxicity at 0.45 µM (SNU-C2B; AZD5582 450 nM alone): 75.3%

Molecule: CN[C@@H](C)C(=O)N[C@H](C(=O)N1CCC[C@H]1c1nc(C(=O)c2ccc(F)cc2)cs1)C1CCCCC1 [LCL-161]
- cytotoxicity at 5 µM (LS174T): 9%
- cytotoxicity at 5 µM (SW620; SW620, LCL-161 5 uM alone, read-out: % cytotoxicity): 4.7%
- cytotoxicity at 5 µM (HT-29; [1]): 6.2%
- cytotoxicity at 5 µM (LS411N; LS411N, LCL-161 5 uM alone, read-out: % cytotoxicity): 10.5%
- cytotoxicity at 5 µM (SNU-C2B; [1]): 72.9%

Molecule: C[C@@H]1CN(CC(=O)N2CC(C)(C)c3nc(CO)c(Cc4ccc(F)cc4)cc32)[C@@H](CN2CCOC[C@H]2C)CN1 [ASTX660, tolinapant]
- cytotoxicity at 0.9 µM (SW620; SW620, ASTX660 900 nM alone): 2.6%
- cytotoxicity at 0.9 µM (HT-29; ASTX660 900 nM alone): 0.3%
- cytotoxicity at 0.9 µM (LOVO; ASTX660 900 nM alone): 6.5%
- cytotoxicity at 0.9 µM (LS411N; LS411N, ASTX660 900 nM alone): 5.9%
- cytotoxicity at 0.9 µM (SNU-C2B; ASTX660 900 nM alone): 31.1%

Molecule: CN[C@@H](C)C(=O)N[C@H]1CN(C(=O)CC(C)C)CC[C@H]2CC[C@@H](C(=O)NC(c3ccccc3)c3ccccc3)N2C1=O [Debio-1143, xevinapant]
- cytotoxicity at 4.5 µM (SW620): 5.5%
- cytotoxicity at 4.5 µM (LS411N): 0.4%
- cytotoxicity at 4.5 µM (SNU-C2B): 44.8%
- cytotoxicity at 4.5 µM (A253; [2]): 3.2%
- cytotoxicity at 4.5 µM (CAL-27; [2]): 7.2%
- cytotoxicity at 4.5 µM (COLO-680N; [2]): 3.4%
- cytotoxicity at 4.5 µM (Detroit 562; [2]): 9%
- cytotoxicity at 4.5 µM (FADU; [2]): -3.7%
- cytotoxicity at 4.5 µM (KYSE-150; [2]): -13.7%
- cytotoxicity at 4.5 µM (KYSE-270; [2]): 8.2%
- cytotoxicity at 4.5 µM (KYSE-410; [2]): -3.3%
- cytotoxicity at 4.5 µM (KYSE-70; [2]): -6.7%
- cytotoxicity at 4.5 µM (OSC-19; OSC19, Debio-1143 4.5 μM alone): -7.1%
- cytotoxicity at 4.5 µM (RPMI-2650; [2]): 5.6%
- cytotoxicity at 4.5 µM (SCC-15; [2]): 0.9%
- cytotoxicity at 4.5 µM (SCC-25; [2]): 0.6%
- cytotoxicity at 4.5 µM (SCC-4; [2]): 0.7%
- cytotoxicity at 4.5 µM (SCC-9; [2]): 2.3%
- cytotoxicity at 4.5 µM (SW579; Debio-1143 4.5 μM alone): 7.7%
- cytotoxicity at 4.5 µM (T.Tn; Debio-1143 4.5 μM alone): 4.4%
- cytotoxicity at 4.5 µM (TE-1; [2]): -6%
- cytotoxicity at 2 µM (NCI-H460): 3.43%
- cytotoxicity at 2 µM (HCC2935): 4.95%
- cytotoxicity at 2 µM (NCI-H23): 10.8%
- cytotoxicity at 2 µM (NCI-H2452): 2.82%
- cytotoxicity at 2 µM (A549): 9.61%
- cytotoxicity at 2 µM (NCI-N87): 7.01%
- cytotoxicity at 2 µM (SNU-5): 31.5%
- cytotoxicity at 2 µM (SNU-1): 6.83%
- cytotoxicity at 2 µM (AsPC-1): 2.71%
- cytotoxicity at 2 µM (Panc-1): 13.6%
- cytotoxicity at 2 µM (MIA-PaCa-2): 7.37%
- cytotoxicity at 2 µM (SW1990): 2.23%

B1: INBRX-109: DR5-binding polypeptide consisting of SEQ ID NO: 7, or SEQ ID NO: 7 lacking the terminal lysine; tetravalent DR5 agonist (protein)
chain: EVQLLESGGGEVQPGGSLRLSCAASGLTFPNYGMGWFRQAPGKEREFVSAIYWSGGTVYYAESVKGRFTISRDNAKNTLYLQMSSLRAEDTAVYYCAVTIRGAATQTWKYDYWGQGTLVTVKPGGSGGSEVQLLESGGGEVQPGGSLRLSCAASGLTFPNYGMGWFRQAPGKEREFVSAIYWSGGTVYYAESVKGRFTISRDNAKNTLYLQMSSLRAEDTAVYYCAVTIRGAATQTWKYDYWGQGTLVTVKPGGGGDKTHTCPPCPAPGGPSVFLFPPKPKDTLMISRTPEVTCVVVDVSHEDPEVKFNWYVDGVEVHNAKTKPREEQYNSTYRVVSVLTVLHQDWLNGKEYKCKVSNKALPAPIEKTISKAKGQPREPQVYTLPPSRDELTKNQVSLTCLVKGFYPSDIAVEWESNGQPENNYKTTPPVLDSDGSFFLYSKLTVDKSRWQQGNVFSCSVMHEALHNHYTQKSLSLSPGK
modifications: Synthetic: INBRX-109
notes: tetravalent DR5 agonist
- % cytotoxicity (A253; INBRX-109 1 nM alone): 50.9%
- % cytotoxicity (CAL-27; INBRX-109 1 nM alone): 13.7%
- % cytotoxicity (COLO-680N; INBRX-109 1 nM alone): 9.6%
- % cytotoxicity (Detroit 562; INBRX-109 1 nM alone): 42.9%
- % cytotoxicity (FADU; INBRX-109 1 nM alone): 6.1%
- % cytotoxicity (KYSE-150; INBRX-109 1 nM alone): −0.3%
- % cytotoxicity (KYSE-270; INBRX-109 1 nM alone): 7.3%
- % cytotoxicity (KYSE-410; INBRX-109 1 nM alone): 2.6%
- % cytotoxicity (KYSE-70; INBRX-109 1 nM alone): 22.3%
- % cytotoxicity (OSC-19; INBRX-109 1 nM alone): 100.9%
- % cytotoxicity (RPMI-2650; INBRX-109 1 nM alone): 2.9%
- % cytotoxicity (SCC-15; INBRX-109 1 nM alone): 7.3%
- % cytotoxicity (SCC-25; INBRX-109 1 nM alone): 7.9%
- % cytotoxicity (SCC-4; INBRX-109 1 nM alone): 8.5%
- % cytotoxicity (SCC-9; INBRX-109 1 nM alone): 19.4%
- % cytotoxicity (SW579; INBRX-109 1 nM alone): 101.7%
- % cytotoxicity (T.Tn; INBRX-109 1 nM alone): 42.9%
- % cytotoxicity (TE-1; INBRX-109 1 nM alone): 38.4%
